Experiments:
BRD4 protein = BRD4 protein (Homo sapiens (Human), UniProt O60885); assay: BRD4 protein degradation inducing action in LNCaP cells (immunofluorescence, 6 hr); type: cell-based; details: anti-BRD4 fluorescence intensity
Method in brief: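 Read-out is BRD4 immunofluorescence intensity (560/572 nm) after 6 hr compound treatment of LNCaP cells in 10% FBS/RPMI1640, with fixation, permeabilization and anti-BRD4 staining. Linear interpolation between the two concentrations flanking 50% of untreated intensity gives DC50.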

[1] = tested on: human prostate cancer LNCaP cells; assay: Cytotoxic action on LNCaP cells (WST-8, 96 hr); type: cell-based; details: 96 hr culture
Method in brief: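 Overnight pre-culture (10% FBS/RPMI1640, 37° C, 5% CO2) → compound from DMSO stock diluted in medium → 96 hr → WST-8 viable count. IC50 = conc. at 50% survival vs untreated, linear interpolation. (+)-JQ1 as positive control.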

DC50 (BRD4 protein)	SMILES	IC50 [1]
0.8 nM	COC(=O)C[C@@H]1N=C(c2ccc(-c3ccc(C(=O)NCCc4ccc(S(=O)(=O)Nc5ccc(C)c6c(C#N)c[nH]c56)cc4)cc3C)cc2)c2c(sc(C)c2C)-n2c(C)nnc21 [Example 89, methyl [(6S)-4-{4′-[(2-{4-[(3-cyano-4-methyl-1H-indol-7-yl)sulfamoyl]phenyl}ethyl)carbamoyl]-2′-methyl [1,1′-biphenyl]-4-yl}-2,3,9-trimethyl-6H-thieno[3,2-f][1,2,4]triazolo[4,3-a][1,4]diazepin-6-yl]acetate]	0.33 nM
0.028 nM	CCCOC(=O)C[C@@H]1N=C(c2ccc(-c3ccc(C(=O)NCc4ccc(S(=O)(=O)Nc5ccc(C)c6c(C#N)c[nH]c56)cc4)cc3)cc2)c2c(sc(C)c2C)-n2c(C)nnc21 [Example Compound 130, n-propyl [(6S)-4-{4′-[({4-[(3-cyano-4-methyl-1H-indol-7-yl)sulfamoyl]phenyl}methyl)carbamoyl][1,1′-biphenyl]-4-yl}-2,3,9-trimethyl-6H-thieno[3,2-f][1,2,4]triazolo[4,3-a][1,4]diazepin-6-yl]acetate]	0.05 nM
0.091 nM	COC(=O)C[C@@H]1N=C(c2ccc(-c3ccc(C(=O)NCCc4ccc(S(=O)(=O)Nc5ccc(C)c6c(C#N)c[nH]c56)cc4)nc3)cc2)c2c(sc(C)c2C)-n2c(C)nnc21 [Example 90, methyl [(6S)-4-(4-{6-[(2-{4-[(3-cyano-4-methyl-1H-indol-7-yl)sulfamoyl]phenyl}ethyl)carbamoyl]pyridin-3-yl}phenyl)-2,3,9-trimethyl-6H-thieno[3,2-f][1,2,4]triazolo[4,3-a][1,4]diazepin-6-yl]acetate]	0.19 nM
0.25 nM	CCc1ccc(NS(=O)(=O)c2ccc([C@@H](C)NC(=O)c3ccc(-c4ccc(C5=N[C@@H](CC(=O)OC(C)(C)C)c6nnc(C)n6-c6sc(C)c(C)c65)cc4)cc3)cc2)c2[nH]cc(C#N)c12 [Example Compound 136, t-butyl [(6S)-4-(4′-{[(1R)-1-{4-[(3-cyano-4-ethyl-1H-indol-7-yl)sulfamoyl]phenyl}ethyl]carbamoyl}[1,1′-biphenyl]-4-yl)-2,3,9-trimethyl-6H-thieno[3,2-f][1,2,4]triazolo[4,3-a][1,4]diazepin-6-yl]acetate]	0.6 nM
0.13 nM	Cc1sc2c(c1C)C(c1ccc(-c3ccc(C(=O)NCCc4ccc(S(=O)(=O)Nc5ccc(C)c6c(C#N)c[nH]c56)cc4)cc3)cc1)=N[C@@H](CC(=O)OC(C)(C)C)c1nnc(C)n1-2 [Example 64, t-butyl [(6S)-4-{4′-[(2-{4-[(3-cyano-4-methyl-1H-indol-7-yl)sulfamoyl]phenyl}ethyl)carbamoyl][1,1′-biphenyl]-4-yl}-2,3,9-trimethyl-6H-thieno[3,2-f][1,2,4]triazolo[4,3-a][1,4]diazepin-6-yl]acetate]	0.25 nM

The next lines start with the molecule.

SMILES	DC50 (BRD4 protein)	IC50 [1]
CCc1ccc(NS(=O)(=O)c2ccc(CNC(=O)c3ccc(-c4ccc(C5=N[C@@H](CC(=O)OC)c6nnc(C)n6-c6sc(C)c(C)c65)cc4)cc3Cl)cc2)c2[nH]cc(C#N)c12 [Example 113, methyl [(6S)-4-{3′-chloro-4′-[({4-[(3-cyano-4-ethyl-1H-indol-7-yl)sulfamoyl]phenyl}methyl)carbamoyl][1,1′-biphenyl]-4-yl}-2,3,9-trimethyl-6H-thieno[3,2-f][1,2,4]triazolo[4,3-a][1,4]diazepin-6-yl]acetate]	0.33 nM	0.3 nM
COC(=O)C[C@@H]1N=C(c2ccc(-c3ccc(C(=O)NCc4ccc(S(=O)(=O)Nc5ccc(C)c6c(C#N)c[nH]c56)cc4)cc3)cc2)c2cc(OC)ccc2-n2c(C)nnc21 [Example Compound 133, methyl [(4S)-6-{4′-[({4-[(3-cyano-4-methyl-1H-indol-7-yl)sulfamoyl]phenyl}methyl)carbamoyl][1,1′-biphenyl]-4-yl}-8-methoxy-1-methyl-4H-[1,2,4]triazolo[4,3-a][1,4]benzodiazepin-4-yl]acetate]	0.34 nM	0.49 nM
COC(=O)NC1N=C(c2ccc(-c3ccc(C(=O)NCc4ccc(S(=O)(=O)Nc5ccc(C)c6c(C#N)c[nH]c56)cc4)cc3)cc2)c2c(sc(C)c2C)-n2c(C)nnc21 (stereo not shown) [Example 36, methyl (4-{4′-[({4-[(3-cyano-4-methyl-1H-indol-7-yl)sulfamoyl]phenyl}methyl)carbamoyl][1,1′-biphenyl]-4-yl}-2,3,9-trimethyl-6H-thieno[3,2-f][1,2,4]triazolo[4,3-a][1,4]diazepin-6-yl)carbamate]	0.41 nM	1.4 nM
CCc1ccc(NS(=O)(=O)c2ccc([C@@H](C)NC(=O)c3ccc(-c4ccc(C5=N[C@@H](CC(=O)OC)c6nnc(C)n6-c6sc(C)c(C)c65)cc4)cc3C)cc2)c2[nH]cc(C#N)c12 [Example Compound 123, methyl [(6S)-4-(4′-{[(1R)-1-{4-[(3-cyano-4-ethyl-1H-indol-7-yl)sulfamoyl]phenyl}ethyl]carbamoyl}-3′-methyl[1,1′-biphenyl]-4-yl)-2,3,9-trimethyl-6H-thieno[3,2-f][1,2,4]triazolo[4,3-a][1,4]diazepin-6-yl]acetate]	0.21 nM	0.32 nM
COC(=O)C[C@@H]1N=C(c2ccc(-c3ccc(C(=O)N[C@H](C)c4ccc(S(=O)(=O)Nc5ccc(C)c6c(C#N)c[nH]c56)cc4)cc3Cl)cc2)c2c(sc(C)c2C)-n2c(C)nnc21 [Example 84, methyl [(6S)-4-(2′-chloro-4′-{[(1R)-1-{4-[(3-cyano-4-methyl-1H-indol-7-yl)sulfamoyl]phenyl}ethyl]carbamoyl}[1,1′-biphenyl]-4-yl)-2,3,9-trimethyl-6H-thieno[3,2-f][1,2,4]triazolo[4,3-a][1,4]diazepin-6-yl]acetate]	0.23 nM	0.58 nM
COC(=O)C[C@@H]1N=C(c2ccc(-c3ccc(C(=O)NCc4ccc(S(=O)(=O)Nc5ccc(C)c6c(C#N)c[nH]c56)cc4)c(OC)c3)cc2)c2c(sc(C)c2C)-n2c(C)nnc21 [Example 52, methyl [(6S)-4-{4′-[({4-[(3-cyano-4-methyl-1H-indol-7-yl)sulfamoyl]phenyl}methyl)carbamoyl]-3′-methoxy[1,1′-biphenyl]-4-yl}-2,3,9-trimethyl-6H-thieno[3,2-f][1,2,4]triazolo[4,3-a][1,4]diazepin-6-yl]acetate]	0.3 nM	0.55 nM
Cc1sc2c(c1C)C(c1ccc(-c3cnc(C(=O)NCc4ccc(S(=O)(=O)Nc5ccc(C)c6c(C#N)c[nH]c56)cc4)cn3)cc1)=N[C@@H](CC(=O)OC(C)(C)C)c1nnc(C)n1-2 [Example Compound 148, t-butyl [(6S)-4-(4-{5-[({4-[(3-cyano-4-methyl-1H-indol-7-yl)sulfamoyl]phenyl}methyl)carbamoyl]pyrazin-2-yl}phenyl)-2,3,9-trimethyl-6H-thieno[3,2-f][1,2,4]triazolo[4,3-a][1,4]diazepin-6-yl]acetate]	0.042 nM	0.2 nM
COC(=O)C[C@@H]1N=C(c2ccc(-c3cnc(C(=O)NCc4ccc(S(=O)(=O)Nc5ccc(C)c6c(C#N)c[nH]c56)cc4)c(F)c3)cc2)c2c(sc(C)c2C)-n2c(C)nnc21 [Example 77, methyl [(6S)-4-(4-{6-[({4-[(3-cyano-4-methyl-1H-indol-7-yl)sulfamoyl]phenyl}methyl)carbamoyl]-5-fluoropyridin-3-yl}phenyl)-2,3,9-trimethyl-6H-thieno[3,2-f][1,2,4]triazolo[4,3-a][1,4]diazepin-6-yl]acetate]	0.048 nM	0.16 nM
CCc1ccc(NS(=O)(=O)c2ccc(CCNC(=O)c3ccc(-c4ccc(C5=N[C@@H](CC(=O)OC)c6nnc(C)n6-c6sc(C)c(C)c65)cc4)c(F)c3F)cc2)c2[nH]cc(C#N)c12 [Example Compound 125, methyl [(6S)-4-{4′-[(2-{4-[(3-cyano-4-ethyl-1H-indol-7-yl)sulfamoyl]phenyl}ethyl)carbamoyl]-2′,3′-difluoro[1,1′-biphenyl]-4-yl}-2,3,9-trimethyl-6H-thieno[3,2-f][1,2,4]triazolo[4,3-a][1,4]diazepin-6-yl]acetate]	0.17 nM	0.37 nM
CCc1ccc(NS(=O)(=O)c2ccc(CNC(=O)c3ccc(-c4ccc(C5=N[C@@H](CC(=O)OC)c6nnc(C)n6-c6sc(C)c(C)c65)cc4)c(F)c3)cc2)c2[nH]cc(C#N)c12 [Example Compound 115, methyl [(6S)-4-{4′-[({4-[(3-cyano-4-ethyl-1H-indol-7-yl)sulfamoyl]phenyl}methyl)carbamoyl]-2′-fluoro[1,1′-biphenyl]-4-yl}-2,3,9-trimethyl-6H-thieno[3,2-f][1,2,4]triazolo[4,3-a][1,4]diazepin-6-yl]acetate]	0.13 nM	0.32 nM
COC(=O)C[C@@H]1N=C(c2ccc(-c3ccc(C(=O)N[C@H](C)c4ccc(S(=O)(=O)Nc5ccc(C)c6c(C#N)c[nH]c56)cc4)nc3)cc2)c2c(sc(C)c2C)-n2c(C)nnc21 [Example 92, methyl {(6S)-4-[4-(6-{[(1R)-1-{4-[(3-cyano-4-methyl-1H-indol-7-yl)sulfamoyl]phenyl}ethyl]carbamoyl}pyridin-3-yl)phenyl]-2,3,9-trimethyl-6H-thieno[3,2-f][1,2,4]triazolo[4,3-a][1,4]diazepin-6-yl}acetate]	0.041 nM	0.087 nM
COC(=O)C[C@@H]1N=C(c2ccc(-c3ccc(C(=O)NCc4ccc(S(=O)(=O)Nc5ccc(C)c6c(C#N)c[nH]c56)cc4)c(F)c3)cc2)c2c(sc(C)c2C)-n2c(C)nnc21 [Example 2, methyl [(6S)-4-{4′-[({4-[(3-cyano-4-methyl-1H-indol-7-yl)sulfamoyl]phenyl}methyl)carbamoyl]-3′-fluoro[1,1′-biphenyl]-4-yl}-2,3,9-trimethyl-6H-thieno[3,2-f][1,2,4]triazolo[4,3-a][1,4]diazepin-6-yl]acetate]	0.23 nM	0.35 nM

From patent publication US11890288B2, “Sulfonamide or sulfinamide compound having effect of inducing BRD4 protein degradation and pharmaceutical use thereof” (MITSUBISHI TANABE PHARMA CORPORATION, priority 2020, dated 2024)
